Experimental data as given in patent US20070270421A1, “Novel pyridine Derivative and Pyrimidine Derivative (1)” (priority 2004, published 2007).

What was measured:
[1] = test system: Human umbilical vein endothelial cells (HUVECs); experiment: Inhibitory activity against the growth of vascular endothelial cells stimulated with hepatocyte growth factor; assay type: cell-based; details: HUVEC, HGF stimulation, third day, Cell Counting Kit-8, read-out: IC50 (concentration necessary to inhibit cell proliferation activity by 50%)
Description: Human umbilical vein endothelial cells (HUVECs) were isolated according to the reported method (Shin Seikagaku Jikken Koza, “Cell culturing techniques”, p 197-202), and then cultured in a 5% CO2 incubator (37° C.) using EGM-2 medium (purchased from Clonetics) until the cells reached confluency.
HUVECs were suspended in a serum-free medium for endothelial cell culture (SFM, purchased from GIBCO RBL) containing 2% FBS. The cell suspension (2×10^4 cells/ml) was put in a cell culturing 96-well plate (purchased from NUNC, Production No. 167008) at 0.1 ml/well, and then cultured in a 5% CO2 incubator (37° C.) overnight. […] After the incubation, using a Plate Reader MTP-500 (Corona Electric), the absorbance of each well was determined at a measurement wavelength of 450 nm and a reference wavelength of 660 nm. While defining the absorbance of a well supplied with HGF and no test substance as 100% cell proliferation activity and the absorbance of the well supplied with no test substance and no HGF as 0% cell proliferation activity, the cell proliferation activity ratio (%) was calculated for each cell. […]

[2] = test system: Human gastric cancer cells (MKN-45) tumor; experiment: Inhibitory activity against the tumor growth of human gastric cancer cells (MKN-45) transplanted in mice; assay type: in vivo, BALB/c (nu/nu) mice; details: oral, twice every day, fifth day, tumor volume relative to control group
Description: Human gastric cancer cells (MNK-45) were suspended in HBSS (purchased from GIBCO BRL). The cell suspension (5×10^7 cells/ml) was transplanted under the right flank skin of seven-week-old female BALB/c (nu/nu) mice at a volume of 0.1 ml. When tumor volume of the site transplanted with MNK-45 cells grew to 100-200 mm^3, mice were grouped so that the groups might be equalized in average tumor volume. The test substance was suspended in 0.5% methylcellulose, a mixed solution of hydrochloric acid and glucose (0.1N hydrochloric acid:5% glucose=1:9) or a mixed solution of dimethyl sulfoxide-Tween-glucose (dimethyl sulfoxide:Tween 80:5% glucose (containing equimolar hydrochloric acid to the test substance)=7:13:80), were administered orally to the mice twice every day. The tumor volumes were determined at the fifth day after the initiation of the administration of the test substances. The major axis and the minor axis of tumor were measured by a caliper to calculate 1/2×(major axis×minor axis×minor axis) for the tumor volume. The experiment was conducted using 10 mice in the control group (solvent-administered group) and 5 mice in test substance-administered group. The ratio in tumor volume of the group for administrating the test substance relative to that of the control group was defined as a tumor proliferation rate (%).

[3] = test system: Human pancreatic cancer cells (SUIT-2); experiment: Inhibitory activity against migration of human pancreatic cancer cells (SUIT-2); assay type: cell-based; details: SUIT-2, Transwell, HGF stimulation, 24 hrs, read-out: IC50 (concentration necessary to inhibit the cell migration activity by 50%)
Description: Human pancreatic cancer cells (SUIT-2) were suspended in a 1% FBS-containing RPMI1640 medium (purchased from Sigma) to prepare a cell suspension (8×10^5 cells/ml). To the lower compartment of Transwell (purchased from COSTAR, Production No. 3422) was added 600 μl of a 1% FBS-containing RPMI1640 medium. To the upper compartment were added 50 μl of the above cell suspension and 25 μl of the test substance dissolved in dimethyl sulfoxide (diluted with the 1% FBS-containing RPMI1640 medium), followed by culturing in a 5% CO2 incubator (37° C.) for 1 hr. After the culture, to the upper compartment of each Transwell was added 25 μl of human recombinant hepatocyte growth factor (HGF, purchased from Wako Pure Chemical Industry, Production No. 22949) diluted to 280 ng/ml with a 1% FBS-containing RPMI1640 medium, followed by culturing in a 5% CO2 incubator (37° C.) for 24 hrs. The cells adhering to the lower compartment of each well were counted in five fields by a phase contrast microscope (200×) to calculated an average adhering cell number. While defining the average adhering cell number of a well supplied with […] and no test substance as 100% cell migration activity and the average adhering cell number of a well supplied with no HGFR and no test substance as 0% cell migration activity, the cell migration activity percent (%) was calculated for each well. The concentration of the test substance was varied at several levels to calculate the cell migration activity percent (%) for respective cases, and to calculate the concentration of the test substance necessary to inhibit the cell migration activity by 50% (IC50).

IC50 [3]	Structure (SMILES)	IC50 [1]	Tumor proliferation rate (%) ([2]; Dose 30 mg/kg/time)	Tumor proliferation rate (%) ([2]; Dose 100 mg/kg/time)	Tumor proliferation rate (%) ([2]; Dose 10 mg/kg/time)
50 nM	O=C(Cc1ccc(F)cc1)NC(=S)Nc1ccc(Oc2cc(NC(=O)N3CCCC3)ncn2)c(F)c1 [Example 3, Pyrrolidine-1-carboxylic acid [6-(2-fluoro-4-{3-[2-(4-fluorophenyl)acetyl]thioureido}phenoxy)pyrimidin-4-yl]amide]	190 nM	69%	37%	
38 nM	O=C(CC(=O)Nc1ccc(Oc2ccnc(NC(=O)N3CCCC3)c2)c(F)c1)Nc1ccc(F)cc1 [Example 56, N-(4-Fluorophenyl)-N′-(3-fluoro-4-{2-[(pyrrolidine-1-carbonyl)amino]pyridin-4-yloxy}phenyl)malonamide]				
3.2 nM	O=C(Cc1ccc(F)cc1)NC(=S)Nc1ccc(Oc2ccnc(NC(=O)N3CCCC3)c2)c(F)c1 [Example 13, 4-(2-Fluoro-4-{3-[2-(4-fluorophenyl)acetyl]thioureido}phenoxy)-2-[(pyrrolidin-1-yl)carbonylamino]pyridine]	73 nM	47%	26%	68%
